According to patent US6133279A, “Therapeutic agents for renal diseases and organ preservatives” (Chugai Seiyaku Kabushiki Kaisha, priority 1996, dated 2000):
Read-outs that look alike come from different tables or passages of the source.

How the values were obtained:
[1] = test system: puromycin-induced nephrosis model; assay: Puromycin-induced nephrosis (2), postadministration (in vivo); design: species or system rat (male SD rats); conditions: 200 mg/kg oral once a day from the day following puromycin
Protocol: Effect of the compounds of the present invention on an in vivo renal disease was studied using a puromycin-induced nephrosis model. A puromycin-induced renal failure model was prepared from rats in groups of 5-8 each (6 week-old male SD rats) fed with high-fat diet. High-fat diet feeding was started by free access to high-fat diet (cholesterol level 1.25%) from 7 days before puromycin treatment. Puromycin (puromycin aminonucleoside, SIGMA Chemical Co.) treatment was performed by intraperitoneal administration at a dose of 100 mg/kg. Test compounds were administered as a solution in soybean oil via oral route (4 ml/kg). Control group was orally administered soybean oil alone. Probucol and a water-soluble α-tocopherol analogue, Trolox, were used as reference control compounds. The compounds were orally administered once a day from the following day of the puromycin treatment. Renal functions were determined by using urine and blood samples. The volume of urine, urea nitrogen level and creatinine levels of serum and urine were evaluated to calculate creatinine clearance as an indication of renal functions.

[2] = test system: ischemic acute renal failure model; assay: Ischemic acute renal failure model, renal ischemia 30 minutes (in vivo); design: species or system rat (male SD rats); conditions: 200 mg/kg oral once a day
Protocol: Effect of a compound of the present invention on an in vivo renal disease was studied using an ischemic acute renal failure model.
An ischemic acute renal failure model was prepared from in groups of 8 each rats (male SD rats, weight: 224-285 g) fed with high-fat diet. High-fat diet feeding was started by free access to high-fat diet (cholesterol level 1.25%) from 7 or 8 days prior to unilateral nephrectomy and left renal artery clamping. The test compound was administered as a solution in soybean oil via oral route (4 ml/kg). Control group was orally administered soybean oil alone. The administration of compound was started from 4 or 5 days before the ischemic treatment at a dose of 200 mg/kg once a day. After the ischemia treatment, the oral administration of the compound was continued at a frequency of once a day. The ischemic treatment was performed by removing the right kidney and clipping a renal artery of the left kidney for 30 or 60 minutes.
Renal functions after ischemic treatment were determined by using urine and blood samples daily collected. Urine volume and the creatinine level of serum and urine were evaluated to calculate creatinine clearance as an indication of renal functions. Influences of high-fat diet feeding were monitored by measuring serum cholesterol level.

[3] = test system: puromycin-induced nephrosis model; assay: Puromycin-induced nephrosis (1), preadministration (in vivo); design: species or system rat (male SD rats); conditions: day 8; for Creatinine clearance: control 576 ± 148; for Creatinine: serum, control 0.93 ± 0.21
Protocol: Effect of the compound of the present invention on an in vivo renal disease was studied using a puromycin-induced nephrosis model.
A puromycin-induced renal failure model was prepared from rats in groups of 5-8 each (6 week-old male SD rats) fed with high-fat diet. High-fat diet feeding was started by free access to high-fat diet (cholesterol level 1.25%) from 7 days before puromycin treatment. Puromycin (puromycin aminonucleoside, SIGMA Chemical Co.) treatment was performed by intraperitoneal administration at a dose of 100 mg/kg. The test compound was administered as a solution in soybean oil via oral route (4 ml/kg). Control group was orally administered soybean oil alone. The administration of compound was started from 3 days before the puromycin treatment once a day. After the puromycin treatment, the oral administration of the compound was continued.
Renal functions were determined by using urine and blood samples collected on day 8 after the puromycin treatment. Volume of urine and the creatinine levels in serum and urine were evaluated to calculate creatinine clearance as an indication of renal functions.

[4] = test system: porcine kidney-derived LLC-PK1 cells; assay: Protective effect against oxidized LDL-induced injury of porcine kidney-derived LLC-PK1 cells (1); assay type: cell-based; conditions: Sus scrofa, LLC-PK1, 6 h, mean ± standard deviation, read-out: Cytoprotection rate (%)
Protocol: For the purpose of evaluating in vitro cytoprotective effect of the compounds of the present invention, a cytoprotective study was performed using porcine kidney-derived LLC-PK1 cells (ATCC-CRL-13921) injured by oxidized low-density lipoprotein (oxidized LDL).
Oxidized LDL was prepared by incubating 1 mg/ml of rabbit LDL in PBS (-) in the presence of 10 μM CuSO4 at 37° C. for 24 hours. Cell culture was carried out by plating 1.25×10^4 cells/250 μl/well on a 48-well plate containing M199 medium containing 3% FBS. Test compounds were dissolved or suspended in ethanol and added to the wells in an amount of 1.25 μl/well to a concentration of 0.1, 1 or 10 μM in each well. After 16 hours or immediately after the addition of the compounds, oxidized LDL was added to the wells. Probucol, α-tocopherol and Trolox which is a water-soluble analogue of α-tocopherol were used as reference control compounds. Oxidized LDL was diluted twice with saline and then added to the wells in an amount of 62.5 μl/well to a concentration of 100 μg/ml and the cells were cultured for 6 hours after addition of the oxidized LDL. Then, 162.5 μl/well of the culture medium were collected and measured for the lactate dehydrogenase (LDH) level (LD-L: SIGNA DIAGNOSTICS) having leaked into the medium.
The magnitude of cytoprotective effect was expressed as the cytoprotection rate which was determined by calculating the data assuming that the magnitude in wells containing oxidized LDL is 0% and that the magnitude in wells containing saline is 100%.

[5] = 20 mg/kg oral once a day from 3 days before puromycin
[6] = 200 mg/kg oral once a day from 3 days before puromycin, P < 0.05
[7] = compound added 16 hours before adding oxidized LDL
[8] = compound added immediately before adding oxidized LDL

## CCCCCC1(CCCCC)Cc2c(cc(C(C)(C)C)c(O)c2C(C)(C)C)O1 [Example 36, 4,6-Di-t-butyl-2,2-di-n-pentyl-5-hydroxy-2,3-dihydrobenzofuran]
[1]; control 0.82 ± 0.07
  Creatinine: 0.75 ± 0.11 mg/dL
[1]; control 30.74 ± 10.95
  Urine nitrogen: 24.57 ± 10.68 mg/dL
[1]; control 824 ± 108
  Creatinine clearance: 837 ± 205 mL/day
[2]; 1 day after ischemia (30 minutes), control 1.73 ± 0.73, P < 0.05
  Creatinine: 1.06 ± 0.24 mg/dL
[2]; 1 day after ischemia (30 minutes), control 632 ± 167, P < 0.05
  Creatinine clearance: 934 ± 253 mL/day
[2]; 2 days after ischemia (30 minutes), control 1.84 ± 1.40
  Creatinine: 0.96 ± 0.23 mg/dL
[2]; 2 days after ischemia (30 minutes), control 678 ± 277, P < 0.05
  Creatinine clearance: 1095 ± 325 mL/day
[2]; 3 days after ischemia (30 minutes), control 2.19 ± 2.34
  Creatinine: 1.05 ± 0.26 mg/dL
[3]; [5]
  Creatinine clearance: 724 ± 176 mL/day
  Creatinine: 0.71 ± 0.14 mg/dL
[3]; [6]
  Creatinine clearance: 1055 ± 482 mL/day
  Creatinine: 0.59 ± 0.23 mg/dL
[4]; [7]
  inhibition at 0.1 µM: -1 ± 7.4%
  inhibition at 1 µM: 92.2 ± 3.7%
  inhibition at 10 µM: 97.7 ± 1.1%
[4]; [8]
  inhibition at 0.1 µM: -3.2 ± 1.1%
  inhibition at 1 µM: 0.6%
  inhibition at 10 µM: 78.8 ± 3.6%
